# Experimental data as given in patent US8580780B2, “6 substituted 2, 3,4,5 tetrahydro-1H-benzo[d]azepines as 5-HT2C receptor agonist” (Eli Lilly and Company, priority 2004, dated 2013).
# What was measured:
# Marble burying assay = format: in vivo, male NIH Swiss mice; settings: mice, 30 min session, with rotorod check
# Text: Marble burying in mice has been used to model anxiety disorders including obsessive-compulsive disorders (OCD) due to ethological study of the behavior (e.g. Gyertyan I. “Analysis of the marble burying response: Marbles serve to measure digging rather than evoke burying”, Behavioural Pharmacology 6: 24-31, (1995)) and due to the pharmacological effects of clinical standards (c.f., Njung'E K. Handley S L. “Evaluation of marble-burying behavior as a model of anxiety”, Pharmacology, Biochemistry & Behavior. 38: 63-67, (1991)); Borsini F., Podhorna J., and Marazziti, D. “Do animal models of anxiety predict anxiolytic effects of antidepressants?”, Psychopharmacology 163: 121-141, (2002)).
# House experimentally-naïve male, NIH Swiss mice (Harlan Sprague-Dawley, Indianapolis, Ind.) weighing between 28-35g in groups of 12 for at least three days prior to testing in a vivarium with 12 h light and dark cycles. Conduct experiments during the light cycle in a dimly lit experimental testing room. Dose mice with vehicle or test compound and, after a specified pretreatment interval (generally 30 min.), place each mouse individually on a rotorod (Ugo Basile 7650) operating at a speed of 6 revolutions/min. and observe for falling. […]
# Clinically effective standard compounds suppress marble burying at doses that are devoid of motor-impairing effects as measured on the rotorod. […]
# [1] = rat, in vivo; cited from earlier work
# [2] = mouse, in vivo; cited from earlier work
# Nestlet shredding = format: in vivo, male NIH Swiss mice; settings: mice, 30 min
# Text: Mice naturally will construct nests of material available in their living environment. Since this behavior is obsessive in nature, it has been used to model OCD (Xia Li, Denise Morrow and Jeffrey M. Witkin, “Decreases in nestlet shredding of mice by serotonin uptake inhibitors: comparison with marble burying”, Psychopharmacology, submitted Jul. 14, 2003). House experimentally-naïve male, NIH Swiss mice (Harlan Sprague-Dawley, Indianapolis, Ind.) weighing between 28-35g in groups of 12 for at least three days prior to testing in a vivarium with a 12 h light/dark cycle. Conduct experiments during the light cycle in an experimental room with normal overhead fluorescent lighting. Dose mice with vehicle or test compound and after a specified pretreatment interval (generally 30 min.), place the mice individually in a 17×28×12 cm high plastic tub with about 5 mm sawdust shavings on the floor along with a pre-weighed multi-ply gauze pad (51 mm square). After 30 min., weigh the remainder of the game pad not removed by the mouse. Determine the weight of the gauze used for nestlet construction by subtraction. Compare the results for test compound treated mice to the results for vehicle control treated mice with Dunnett's test.
# Clinically effective OCD treatment standard compounds suppress nestlet shredding at doses that are devoid of motor-impairing effects as measured by the rotorod test. […]
# [3] = Schedule-induced polydipsia; format: in vivo, Wistar rats
# Text: Food-deprived rats exposed to intermittent presentations of food will drink amounts of water that are far in excess of their normal daily intake and in excess of their intake when given all of their food at one time (Falk J L. “Production of polydipsia in normal rats by an intermittent food schedule”, Science 133: 195-196, (1961)). This excessive behavior is persistent and has been used to model OCD.
# Maintain Wistar rats on a food restricted diet (to maintain 85% free feeding weight), but with free access to water. Train the rats in a behavioral testing chamber to press a lever to receive a food pellet under a fixed interval schedule, such that the rats are rewarded with a 45 mg food pellet the first time they press a lever after a 120 second interval has elapsed. The fixed interval is then reset to 120 seconds and the process repeated. Thus, during a 90 min. test session, the rats can earn a maximum of 45 pellets. The behavioral chamber is also equipped with a water bottle that is weighed before and after the session to determine the amount of water consumed.
# Administer test compounds on Tuesdays and Fridays. […] Compare the rates of lever pressing and water consumption for each animal's performance during sessions after test compound treatment with that animal's performance during control sessions, expressed as a percent of the control rate. […]
structure (smiles),measurement,setting,value
CN(C)CCCN1c2ccccc2Sc2ccc(Cl)cc21 [chlorpromazine],marble burying behavior,Marble burying assay,decrease marble burying only at doses that also disrupt rotorod performance
CNCCC(Oc1ccc(C(F)(F)F)cc1)c1ccccc1 (centres unmarked) [fluoxetine],schedule-induced polydipsia (clinically effective OCD standards),[1],"suppress schedule-induced polydipsia without producing notable changes in motor patterns, food intake, or behavior the following day"
same,"marble burying (clinical standards, literature)",[2],decrease burying
Clc1ccc2c(c1SCc1ccccn1)CCNCC2.O=C(O)CCC(=O)O,melting point,,159 to 160 °C
CN(C)CCCN1c2ccccc2CCc2ccc(Cl)cc21 [chlomipramine],schedule-induced polydipsia (clinically effective OCD standards),[1],"suppress schedule-induced polydipsia without producing notable changes in motor patterns, food intake, or behavior the following day"
C[C@H](N)Cc1ccccc1 [d-amphetamine],nestlet shredding,Nestlet shredding,decreases nestlet shredding only at doses that produce motoric side effects
same,Effect on polydipsia with co-administration of 5-HT2C antagonist,"[3]; rat, in vivo",not prevented by the 5HT2C receptor antagonist
same,schedule-induced polydipsia (excessive drinking),"[3]; rats, 90 min session",decreases excessive drinking only at behaviorally stimulating doses
